Square brackets hold non-standard residues; d marks the D form. Peptide text beside a SMILES is read from it. NMeF = CN[C@@H](Cc1ccccc1)C(=O)O; NMeI = CC[C@H](C)[C@H](NC)C(=O)O; NMeL = CN[C@@H](CC(C)C)C(=O)O; NMeA = CN[C@@H](C)C(=O)O; dNMeA = CN[C@H](C)C(=O)O; Sar = CNCC(=O)O
What was measured:
[1] = test system: growth hormone release from rat pituitary cells; assay: In vitro test for the inhibition of growth hormone release in cultured rat pituitary cells; assay type: cell-based; conditions: multiples or fractions of the effect of somatostatin (=1), fiducial limits in parentheses, 4 hours incubation
Experimental: The instant cyclic hexapeptide analogs of somatostatin are tested and compared with the effects of somatostatin in an in vitro test for the inhibition of growth hormone. The test is described as follows:
Rat pituitaries were isolated according to the procedures of Vale and Grant "In vitro Pituitary Hormone Secretion Assay for Hypophysiotropic Substances" in Methods in Enzymology. Vol. XXXVII, eds. O'Malley, B. W. and Hardman, J. G. (Academic Press, Inc., New York) pp. 5-93 (1975).
After 4 days in culture, the cells were washed and incubated for 4 hours in Dulbecco-modified Eagle's medium in the presence or absence of graded doses of each analog of somatostatin. The medium was then collected for subsequent growth hormone determination by a double antibody radioimmunoassay for rat growth hormone."
The test results for some of the compounds of this invention are recorded below with the results for somatostatin listed first and given the arbitrary value of 1. The results for the instant compounds are given as multiples or fractions of the effect of somatostatin. The numbers in parentheses are the fiducial limits for the number preceding. The first of the instant compounds listed is the compound prepared in Examples 1-5. The compound is written slightly different, however, to conform to the order of the amino acids found in somatostatin.

[2] = test system: pentagastrin evoked gastric secretion; assay: Inhibition of pentagastrin evoked gastric secretion in the chronic fistula dog; assay type: in vivo; conditions: Dose 0.8 μg/ml./min., infusion 0-60 min., relative to placebo; for Gastric Secretion % Inhibition Acid Concentration 0-30 / Gastric Secretion % Inhibition Vol. 0-30: 0-30 min; for Gastric Secretion % Inhibition Acid Concentration 30-60 / Gastric Secretion % Inhibition Vol. 30-60: 30-60 min; for Gastric Secretion % Inhibition Acid Concentration 60-90 / Gastric Secretion % Inhibition Vol. 60-90: 60-90 min; for Gastric Secretion % Inhibition Acid Concentration 90-120 / Gastric Secretion % Inhibition Vol. 90-120: 90-120 min; for Gastric Secretion % Inhibition Vol. 0-30 / Gastric Secretion % Inhibition Vol. 30-60 / Gastric Secretion % Inhibition Vol. 60-90 / Gastric Secretion % Inhibition Vol. 90-120: output volume
Experimental: The effects of the instant cyclichexapeptide analogs of somatostatin are determined by the following procedure.
Compounds were tested for their ability to inhibit pentagastrin evoked gastric secretion in the chronic fistula dog. Female beagle dogs with a chronic gastric fistula were given pentagastrin (2.5 μg./kg./hour, i.v. from -60 to 120 min.) and gastric outputs were collected via the fistula cannula. Samples were analyzed at 30 minute intervals for volume (ml.) and titratable acid (mEq/L) (Titration to pH 7 with 0.01 N NaOH); total acid output (mEq) was calculated as the production of output volume and acid concentration. Test compounds were infused at a constant rate from 0 to 60 minutes. Data have been expressed as percent change of total acid output relative to a placebo trial in the same animals.

## C[C@H]1C(=O)N[C@@H](Cc2c[nH]cn2)C(=O)N[C@H](Cc2c[nH]c3ccccc23)C(=O)N[C@@H](CCCCN)C(=O)N[C@@H](CO)C(=O)N[C@@H](Cc2ccc(O)cc2)C(=O)N1C [Cyclo(N--Me--Ala--His--D-Trp-- Lys--Ser--Tyr)] (cyclo(H[dW]KSY[NMeA]))
[1]
  Growth Hormone Release Inhibition In Vitro: 0.38(0.16-0.75)

## Cyclo--(N--Me--Ala--Phe--D-Trp-- Lys--The--O--I--Phe)
[1]
  Growth Hormone Release Inhibition In Vitro: 12.1(5.2-23.4)

## CC(C)[C@@H]1NC(=O)[C@H](CCCCN)NC(=O)[C@@H](Cc2c[nH]c3ccccc23)NC(=O)[C@H](Cc2ccc(O)cc2)NC(=O)[C@H](C)N(C)C(=O)[C@H](Cc2c[nH]c3ccccc23)NC1=O [Cyclo--(N--Me--Ala--Tyr--D-Trp-- Lys--Val--Trp)] (cyclo(KVW[NMeA]Y[dW]))
[1]
  Growth Hormone Release Inhibition In Vitro: 26.9(17.2-40.3)

## C[C@@H](O)[C@@H]1NC(=O)[C@H](CCCCN)NC(=O)[C@@H](Cc2c[nH]c3ccccc23)NC(=O)[C@H](Cc2ccccc2)NC(=O)CN(C)C(=O)[C@H](Cc2ccccc2)NC1=O [Cyclo--(Sar--Phe--D-Trp-- Lys--Thr--Phe)] (cyclo(F[Sar]F[dW]KT))
[1]
  Growth Hormone Release Inhibition In Vitro: 1.47(0.93-2.3)

## Cyclo--(N--Me--OABU--Phe--D-Trp-- Lys--Thr--Phe)
[1]
  Growth Hormone Release Inhibition In Vitro: 24.6(15.3-46.5)

## CC(C)[C@@H]1NC(=O)[C@H](CCCCN)NC(=O)[C@@H](Cc2c[nH]c3ccccc23)NC(=O)[C@H](Cc2ccc(O)cc2)NC(=O)[C@H](C)N(C)C(=O)[C@@H](Cc2ccccc2)NC1=O [Cyclo--(N--Me--Ala--Tyr--D-Trp-- Lys--Val--D-Phe)]
[1]
  Growth Hormone Release Inhibition In Vitro: 5.0(3.12-8.17)

## Cyclo--(N--Me--Ala--O--Phe--D-Trp-- Lys--Val--L--Trp)
[1]
  Growth Hormone Release Inhibition In Vitro: 22.9(15.0-33.6)

## CC(C)[C@@H]1NC(=O)[C@H](CCCCN)NC(=O)[C@@H](Cc2c[nH]c3ccccc23)NC(=O)[C@H](Cc2ccc(O)cc2)NC(=O)[C@H](C)N(C)C(=O)[C@H](Cc2ccccc2)NC1=O [Cyclo--(N--Me--Ala--Tyr--D-Trp-- Lys--Val--Phe)]
[1]
  Growth Hormone Release Inhibition In Vitro: 52(35-75)

## Cyclo--(N--Me--Ala--O--I--Phe--D-Trp-- Lys--Val--Phe)
[1]
  Growth Hormone Release Inhibition In Vitro: 13.9(9.5-20.0)

## C[C@@H](O)[C@@H]1NC(=O)[C@H](CCCCN)NC(=O)[C@@H](Cc2c[nH]c3ccccc23)NC(=O)[C@H](Cc2ccccc2)NC(=O)[C@H](C)N(C)C(=O)[C@H](Cc2ccccc2)NC1=O [Cyclo(D-Trp-Lys-Thr-Phe-N-Me-Ala-Phe)] (cyclo(F[NMeA]F[dW]KT))
[1]
  Growth Hormone Release Inhibition In Vitro: 4.38(2.15-11.90)
[2]
  Gastric Secretion % Inhibition Acid Concentration 0-30: 15%
  Gastric Secretion % Inhibition Acid Concentration 30-60: 41%
  Gastric Secretion % Inhibition Acid Concentration 60-90: 47%
  Gastric Secretion % Inhibition Acid Concentration 90-120: 48%
  Gastric Secretion % Inhibition Vol. 0-30: 91%
  Gastric Secretion % Inhibition Vol. 30-60: 92%
  Gastric Secretion % Inhibition Vol. 60-90: 90%
  Gastric Secretion % Inhibition Vol. 90-120: 84%

## C[C@H]1C(=O)N[C@@H](Cc2c[nH]cn2)C(=O)N[C@H](Cc2c[nH]c3ccccc23)C(=O)N[C@@H](CCCCN)C(=O)N[C@@H](CO)C(=O)N[C@@H](Cc2c[nH]c3ccccc23)C(=O)N1C [Cyclo--(N--Me--Ala--His--D-Trp-- Lys--Ser--Trp)] (cyclo(H[dW]KSW[NMeA]))
[1]
  Growth Hormone Release Inhibition In Vitro: 1.45(0.9-2.06)

## C[C@@H](O)[C@@H]1NC(=O)[C@H](CCCCN)NC(=O)[C@@H](Cc2c[nH]c3ccccc23)NC(=O)[C@H](Cc2ccccc2)NC(=O)[C@H](Cc2ccccc2)N(C)C(=O)[C@H](Cc2ccccc2)NC1=O [Cyclo(N--Me--Phe--Phe--D-Trp-- Lys--Thr--Phe)] (cyclo(F[NMeF]F[dW]KT))
[1]
  Growth Hormone Release Inhibition In Vitro: 13.3(9.6-18.1)

## CC(C)C[C@H]1C(=O)N[C@@H](Cc2ccccc2)C(=O)N[C@H](Cc2c[nH]c3ccccc23)C(=O)N[C@@H](CCCCN)C(=O)N[C@@H]([C@@H](C)O)C(=O)N[C@@H](Cc2ccccc2)C(=O)N1C [Cyclo(N--Me--Leu--Phe--D-Trp-- Lys--Thr--Phe)] (cyclo(F[NMeL]F[dW]KT))
[1]
  Growth Hormone Release Inhibition In Vitro: 0.49(0.19-0.98)

## C[C@@H]1C(=O)N[C@@H](Cc2ccccc2)C(=O)N[C@H](Cc2c[nH]c3ccccc23)C(=O)N[C@@H](CCCCN)C(=O)N[C@@H]([C@@H](C)O)C(=O)N[C@@H](Cc2ccccc2)C(=O)N1C [Cyclo(N--Me--D-Ala-- Phe--D-Trp-- Lys--Thr--Phe)] (cyclo(F[dNMeA]F[dW]KT))
[1]
  Growth Hormone Release Inhibition In Vitro: 2.13(0.83-6.00)
[2]
  Gastric Secretion % Inhibition Acid Concentration 0-30: 12%
  Gastric Secretion % Inhibition Acid Concentration 30-60: 34%
  Gastric Secretion % Inhibition Acid Concentration 60-90: 9%
  Gastric Secretion % Inhibition Acid Concentration 90-120: 0%
  Gastric Secretion % Inhibition Vol. 0-30: 50%
  Gastric Secretion % Inhibition Vol. 30-60: 84%
  Gastric Secretion % Inhibition Vol. 60-90: 0%
  Gastric Secretion % Inhibition Vol. 90-120: 0%

## CC[C@H](C)[C@H]1C(=O)N[C@@H](Cc2ccccc2)C(=O)N[C@H](Cc2c[nH]c3ccccc23)C(=O)N[C@@H](CCCCN)C(=O)N[C@@H]([C@@H](C)O)C(=O)N[C@@H](Cc2ccccc2)C(=O)N1C [Cyclo(N--Me--Ile--Phe--D-Trp-- Lys--Thr--Phe)] (cyclo(F[NMeI]F[dW]KT))
[1]
  Growth Hormone Release Inhibition In Vitro: 1.86(1.35-2.57)

— patent US4310518A, “Cyclic hexapeptide somatostatin analogs” (Merck & Co., Inc., priority 1980, dated 1982)
